Experimental data reported in US10428083B2, “Heterocyclylmethyl-thienouracile as antagonists of the adenosine-A2B-receptor” (BAYER PHARMA AKTIENGESELLSCHAFT, priority 2015, dated 2019).

These compounds were tested against human adenosine A2b receptor (Homo sapiens (Human), UniProt P29275) (assay: Cellular in vitro reporter gene test for A2b receptor activity (CHO-K1, CRE-luciferase, NECA stimulation)). Details: recombinant CHO-K1 cell line, CRE-luciferase reporter, antagonism of EC50 concentration of NECA; in some cases means of several determinations, rounded to two significant figures; read-out: A2b receptor IC50.
human adenosine A2b receptor, sequence (P29275 whole entry): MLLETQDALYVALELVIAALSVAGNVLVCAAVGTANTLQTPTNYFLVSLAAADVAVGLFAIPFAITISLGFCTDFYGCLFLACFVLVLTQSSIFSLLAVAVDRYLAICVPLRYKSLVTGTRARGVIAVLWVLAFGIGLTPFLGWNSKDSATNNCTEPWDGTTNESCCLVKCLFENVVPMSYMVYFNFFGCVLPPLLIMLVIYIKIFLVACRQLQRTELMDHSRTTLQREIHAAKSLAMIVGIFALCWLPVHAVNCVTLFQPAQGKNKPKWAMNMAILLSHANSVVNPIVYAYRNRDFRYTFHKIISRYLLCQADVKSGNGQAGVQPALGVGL
Format: cell-based
Outline: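 CHO-K1 cells with CRE-driven luciferase; antagonists co-incubated with NECA at its EC50, determined in a pre-experiment on each test day. Luciferase read by luminescence 3 h after NECA addition.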
Compound `Cc1c(CN2CCN(C)C2=S)sc2c1c(=O)n(CC(F)(F)F)c(=O)n2CCC(F)(F)F` [Example 306, 5-Methyl-6-[(3-methyl-2-thioxoimidazolidin-1-yl)methyl]-3-(2,2,2-trifluoroethyl)-1-(3,3,3-trifluoropropyl)thieno[2,3-d]pyrimidine-2,4(1H,3H)-dione] has an IC50 of 5.9 nM. `CCn1c(=O)c2c(C)c(CN3CCNC3=O)sc2n(CF)c1=O` [Example 307, 3-Ethyl-1-(fluoromethyl)-5-methyl-6-[(2-oxoimidazolidin-1-yl)methyl]thieno[2,3-d]pyrimidine-2,4(1H,3H)-dione] showed an IC50 of 8.1 nM. With `CCn1c(=O)c2c(C)c(CN3CCNC3=O)sc2n(CCOC2CCCC2)c1=O` [Example 308, 1-[2-(Cyclopentyloxy)ethyl]-3-ethyl-5-methyl-6-[(2-oxoimidazolidin-1-yl)methyl]thieno[2,3-d]pyrimidine-2,4(1H,3H)-dione] the IC50 was 140 nM. For `CCSCCn1c(=O)n(CC)c(=O)c2c(C)c(CN3CCNC3=O)sc21` [Example 309, 3-Ethyl-1-[2-(ethylsulphanyl)ethyl]-5-methyl-6-[(2-oxoimidazolidin-1-yl)methyl]thieno[2,3-d]pyrimidine-2,4(1H,3H)-dione], the IC50 was 36 nM. `CCn1c(=O)c2c(C)c(CN3CCNC3=O)sc2n(CCS(C)(=O)=O)c1=O` [Example 310, 3-Ethyl-5-methyl-1-[2-(methylsulphonyl)ethyl]-6-[(2-oxoimidazolidin-1-yl)methyl]thieno[2,3-d]pyrimidine-2,4(1H,3H)-dione] showed an IC50 of 370 nM. `CCn1c(=O)c2c(C)c(CN3CCNC3=O)sc2n(CCCOC)c1=O` [Example 311, 3-Ethyl-1-(3-methoxypropyl)-5-methyl-6-[(2-oxoimidazolidin-1-yl)methyl]thieno[2,3-d]pyrimidine-2,4(1H,3H)-dione] was tested, and the IC50 was 31 nM. In the case of `Cc1c(CN2CCNC2=O)sc2c1c(=O)n(C(C)C)c(=O)n2C` [Example 312, 3-Isopropyl-1,5-dimethyl-6-[(2-oxoimidazolidin-1-yl)methyl]thieno[2,3-d]pyrimidine-2,4(1H,3H)-dione], the IC50 is reported as 22 nM. For `Cc1c(CN2CCNC2=O)sc2c1c(=O)n(C(C)C)c(=O)n2CF` [Example 313, 1-(Fluoromethyl)-3-isopropyl-5-methyl-6-[(2-oxoimidazolidin-1-yl)methyl]thieno[2,3-d]pyrimidine-2,4(1H,3H)-dione], the IC50 was 41 nM. In the case of `Cc1c(CN2CCNC2=O)sc2c1c(=O)n(C(C)C)c(=O)n2CCCF` [Example 314, 1-(3-Fluoropropyl)-3-isopropyl-5-methyl-6-[(2-oxoimidazolidin-1-yl)methyl]thieno[2,3-d]pyrimidine-2,4(1H,3H)-dione], the IC50 is reported as 4.7 nM. For `C#CCn1c(=O)c2c(C)c(CN3CCNC3=O)sc2n(CCOC)c1=O` [Example 315, 1-(2-Methoxyethyl)-5-methyl-6-[(2-oxoimidazolidin-1-yl)methyl]-3-(prop-2-yn-1-yl)thieno[2,3-d]pyrimidine-2,4(1H,3H)-dione], the IC50 was 4.3 nM. `C=CCCn1c(=O)c2c(C)c(CN3CCNC3=O)sc2n(CCOC)c1=O` [Example 316, 3-(But-3-en-1-yl)-1-(2-methoxyethyl)-5-methyl-6-[(2-oxoimidazolidin-1-yl)methyl]thieno[2,3-d]pyrimidine-2,4(1H,3H)-dione] gave an IC50 of 1.3 nM. For `CC#CCn1c(=O)c2c(C)c(CN3CCNC3=O)sc2n(CCOC)c1=O` [Example 317, 3-(But-2-yn-1-yl)-1-(2-methoxyethyl)-5-methyl-6-[(2-oxoimidazolidin-1-yl)methyl]thieno[2,3-d]pyrimidine-2,4(1H,3H)-dione], the IC50 was 25 nM. Compound `C#CCCn1c(=O)c2c(C)c(CN3CCNC3=O)sc2n(CCOC)c1=O` [Example 318, 3-(But-3-yn-1-yl)-1-(2-methoxyethyl)-5-methyl-6-[(2-oxoimidazolidin-1-yl)methyl]thieno[2,3-d]pyrimidine-2,4(1H,3H)-dione] has an IC50 of 1.4 nM. `C=C(C)CCn1c(=O)c2c(C)c(CN3CCNC3=O)sc2n(CCOC)c1=O` [Example 319, 1-(2-Methoxyethyl)-5-methyl-3-(3-methylbut-3-en-1-yl)-6-[(2-oxoimidazolidin-1-yl)methyl]thieno[2,3-d]pyrimidine-2,4(1H,3H)-dione] was tested, and the IC50 was 2.4 nM. Compound `COCCn1c(=O)n(CCC=C(C)C)c(=O)c2c(C)c(CN3CCNC3=O)sc21` [Example 320, 1-(2-Methoxyethyl)-5-methyl-3-(4-methylpent-3-en-1-yl)-6-[(2-oxoimidazolidin-1-yl)methyl]thieno[2,3-d]pyrimidine-2,4(1H,3H)-dione] has an IC50 of 0.44 nM. Compound `COCCn1c(=O)n(CCC(F)=C(F)F)c(=O)c2c(C)c(CN3CCNC3=O)sc21` [Example 321, 1-(2-Methoxyethyl)-5-methyl-6-[(2-oxoimidazolidin-1-yl)methyl]-3-(3,4,4-trifluorobut-3-en-1-yl)thieno[2,3-d]pyrimidine-2,4(1H,3H)-dione] has an IC50 of 1.6 nM. Compound `COCCn1c(=O)n(CCC=C(F)F)c(=O)c2c(C)c(CN3CCNC3=O)sc21` [Example 322, 3-(4,4-Difluorobut-3-en-1-yl)-1-(2-methoxyethyl)-5-methyl-6-[(2-oxoimidazolidin-1-yl)methyl]thieno[2,3-d]pyrimidine-2,4(1H,3H)-dione] has an IC50 of 1.3 nM. Work on `CCOCCn1c(=O)c2c(C)c(CN3CCNC3=O)sc2n(CCC(F)(F)F)c1=O` [Example 326, 3-(2-Ethoxyethyl)-5-methyl-6-[(2-oxoimidazolidin-1-yl)methyl]-1-(3,3,3-trifluoropropyl)thieno[2,3-d]pyrimidine-2,4(1H,3H)-dione] yielded an IC50 of 10 nM. `CCOCCn1c(=O)c2c(C)c(CN3CCNC3=O)sc2n(CCOC)c1=O` [Example 327, 3-(2-Ethoxyethyl)-1-(2-methoxyethyl)-5-methyl-6-[(2-oxoimidazolidin-1-yl)methyl]thieno[2,3-d]pyrimidine-2,4(1H,3H)-dione] gave an IC50 of 40 nM. `COCCCn1c(=O)c2c(C)c(CN3CCNC3=O)sc2n(CCOC)c1=O` [Example 328, 1-(2-Methoxyethyl)-3-(3-methoxypropyl)-5-methyl-6-[(2-oxoimidazolidin-1-yl)methyl]thieno[2,3-d]pyrimidine-2,4(1H,3H)-dione] gave an IC50 of 19 nM. Work on `COCCn1c(=O)n(CC2COC2)c(=O)c2c(C)c(CN3CCNC3=O)sc21` [Example 335, 1-(2-Methoxyethyl)-5-methyl-3-(oxetan-3-ylmethyl)-6-[(2-oxoimidazolidin-1-yl)methyl]thieno[2,3-d]pyrimidine-2,4(1H,3H)-dione] yielded an IC50 of 270 nM. `Cc1c(CN2CCN(C)C2=O)sc2c1c(=O)n(CC(F)(F)F)c(=O)n2CCC(F)(F)F` [Example 336, 5-Methyl-6-[(3-methyl-2-oxoimidazolidin-1-yl)methyl]-3-(2,2,2-trifluoroethyl)-1-(3,3,3-trifluoropropyl)thieno[2,3-d]pyrimidine-2,4(1H,3H)-dione] gave an IC50 of 8.7 nM. For `COCCn1c(=O)n(CCC(F)(F)F)c(=O)c2c(C)c(CN3CCN(C)C3=O)sc21` [Example 337, 1-(2-Methoxyethyl)-5-methyl-6-[(3-methyl-2-oxoimidazolidin-1-yl)methyl]-3-(3,3,3-trifluoropropyl)thieno[2,3-d]pyrimidine-2,4(1H,3H)-dione], the IC50 was 280 nM. For `COC(C)(C)Cn1c(=O)c2c(C)c(CN3CCN(C)C3=O)sc2n(CCC(F)(F)F)c1=O` [Example 338, 3-(2-Methoxy-2-methylpropyl)-5-methyl-6-[(3-methyl-2-oxoimidazolidin-1-yl)methyl]-1-(3,3,3-trifluoropropyl)thieno[2,3-d]pyrimidine-2,4(1H,3H)-dione], the IC50 was 120 nM. Compound `Cc1c(Cn2cc[nH]c2=O)sc2c1c(=O)n(CC(F)(F)F)c(=O)n2CCC(F)(F)F` [Example 339, 5-Methyl-6-[(2-oxo-2,3-dihydro-1H-imidazol-1-yl)methyl]-3-(2,2,2-trifluoroethyl)-1-(3,3,3-trifluoropropyl)thieno[2,3-d]pyrimidine-2,4(1H,3H)-dione] has an IC50 of 5.6 nM. Compound `COCCn1c(=O)n(CC(F)(F)F)c(=O)c2c(C)c(Cn3cc[nH]c3=O)sc21` [Example 340, 1-(2-Methoxyethyl)-5-methyl-6-[(2-oxo-2,3-dihydro-1H-imidazol-1-yl)methyl]-3-(2,2,2-trifluoroethyl)thieno[2,3-d]pyrimidine-2,4(1H,3H)-dione] has an IC50 of 18 nM. `COCCn1c(=O)c2c(C)c(Cn3cc[nH]c3=O)sc2n(CCC(F)(F)F)c1=O` [Example 344, 3-(2-Methoxyethyl)-5-methyl-6-[(2-oxo-2,3-dihydro-1H-imidazol-1-yl)methyl]-1-(3,3,3-trifluoropropyl)thieno[2,3-d]pyrimidine-2,4(1H,3H)-dione] showed an IC50 of 8.5 nM. Work on `COCCn1c(=O)c2c(C)c(Cn3cc[nH]c3=O)sc2n(CCOC)c1=O` [Example 345, 1,3-Bis(2-methoxyethyl)-5-methyl-6-[(2-oxo-2,3-dihydro-1H-imidazol-1-yl)methyl]thieno[2,3-d]pyrimidine-2,4(1H,3H)-dione] yielded an IC50 of 17 nM. `C=CCn1cnn(Cc2sc3c(c2C)c(=O)n(CC)c(=O)n3CF)c1=O` [Example 349, 6-[(4-Allyl-5-oxo-4,5-dihydro-1H-1,2,4-triazol-1-yl)methyl]-3-ethyl-1-(fluoromethyl)-5-methylthieno[2,3-d]pyrimidine-2,4(1H,3H)-dione] was tested, and the IC50 was 630 nM. For `C=CCn1cnn(Cc2sc3c(c2C)c(=O)n(CC)c(=O)n3CCCF)c1=O` [Example 350, 6-[(4-Allyl-5-oxo-4,5-dihydro-1H-1,2,4-triazol-1-yl)methyl]-3-ethyl-1-(3-fluoropropyl)-5-methylthieno[2,3-d]pyrimidine-2,4(1H,3H)-dione], the IC50 was 210 nM. Compound `CCn1c(=O)c2c(C)c(Cn3nc[nH]c3=O)sc2n(CF)c1=O` [Example 352, 3-Ethyl-1-(fluoromethyl)-5-methyl-6-[(5-oxo-4,5-dihydro-1H-1,2,4-triazol-1-yl)methyl]thieno[2,3-d]pyrimidine-2,4(1H,3H)-dione] has an IC50 of 48 nM. For `CCn1c(=O)c2c(C)c(Cn3nc[nH]c3=O)sc2n(CCCF)c1=O` [Example 353, 3-Ethyl-1-(3-fluoropropyl)-5-methyl-6-[(5-oxo-4,5-dihydro-1H-1,2,4-triazol-1-yl)methyl]thieno[2,3-d]pyrimidine-2,4(1H,3H)-dione], the IC50 was 31 nM.
